{
  "source": "patent US20080207496A1",
  "about": "“ORGANIC COMPOUND” (priority 2003, published 2008)",
  "key": {"[1]": {"tested_on": "Peripheral blood mononuclear cells (PBMCs)", "conditions": "ConA +"}, "[2]": {"tested_on": "IFN-gamma production by CD3+ T cells", "conditions": "at concentrations less than 0.5 mM"}, "[3]": {"test": "Phase I and II studies in patients with advanced cancer", "type": "in vivo, human", "conditions": "oral doses at 150 to 300 mg/day"}, "[4]": {"target": "conventional protein kinase C isoform α (Homo sapiens, UniProt P17252)", "conditions": "cited from earlier work"}, "[5]": {"target": "conventional protein kinase C isoform β (Homo sapiens, UniProt P05771)", "sequence (P05771 whole entry, canonical isoform)": "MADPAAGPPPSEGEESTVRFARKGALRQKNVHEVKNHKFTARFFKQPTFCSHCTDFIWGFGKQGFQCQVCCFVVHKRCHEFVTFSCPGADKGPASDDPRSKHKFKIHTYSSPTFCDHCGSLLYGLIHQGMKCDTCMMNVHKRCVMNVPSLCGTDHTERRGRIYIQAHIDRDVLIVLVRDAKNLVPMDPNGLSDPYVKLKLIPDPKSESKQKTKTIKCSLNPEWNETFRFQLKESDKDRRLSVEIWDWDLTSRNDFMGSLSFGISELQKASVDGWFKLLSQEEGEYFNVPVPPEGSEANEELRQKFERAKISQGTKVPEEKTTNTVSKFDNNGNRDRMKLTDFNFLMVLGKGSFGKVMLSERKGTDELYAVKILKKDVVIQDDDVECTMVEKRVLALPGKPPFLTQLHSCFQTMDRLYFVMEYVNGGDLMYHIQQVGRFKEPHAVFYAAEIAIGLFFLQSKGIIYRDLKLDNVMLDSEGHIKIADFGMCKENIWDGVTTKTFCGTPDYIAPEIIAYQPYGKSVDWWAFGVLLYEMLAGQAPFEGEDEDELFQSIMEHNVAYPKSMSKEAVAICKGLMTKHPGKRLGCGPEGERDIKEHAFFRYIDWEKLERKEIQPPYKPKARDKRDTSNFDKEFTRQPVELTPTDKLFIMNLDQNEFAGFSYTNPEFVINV", "conditions": "cited from earlier work"}, "[6]": {"target": "T1, calcium-independent protein kinase C isoform ε (Homo sapiens, UniProt Q02156)", "T1 sequence (Q02156 1-737)": "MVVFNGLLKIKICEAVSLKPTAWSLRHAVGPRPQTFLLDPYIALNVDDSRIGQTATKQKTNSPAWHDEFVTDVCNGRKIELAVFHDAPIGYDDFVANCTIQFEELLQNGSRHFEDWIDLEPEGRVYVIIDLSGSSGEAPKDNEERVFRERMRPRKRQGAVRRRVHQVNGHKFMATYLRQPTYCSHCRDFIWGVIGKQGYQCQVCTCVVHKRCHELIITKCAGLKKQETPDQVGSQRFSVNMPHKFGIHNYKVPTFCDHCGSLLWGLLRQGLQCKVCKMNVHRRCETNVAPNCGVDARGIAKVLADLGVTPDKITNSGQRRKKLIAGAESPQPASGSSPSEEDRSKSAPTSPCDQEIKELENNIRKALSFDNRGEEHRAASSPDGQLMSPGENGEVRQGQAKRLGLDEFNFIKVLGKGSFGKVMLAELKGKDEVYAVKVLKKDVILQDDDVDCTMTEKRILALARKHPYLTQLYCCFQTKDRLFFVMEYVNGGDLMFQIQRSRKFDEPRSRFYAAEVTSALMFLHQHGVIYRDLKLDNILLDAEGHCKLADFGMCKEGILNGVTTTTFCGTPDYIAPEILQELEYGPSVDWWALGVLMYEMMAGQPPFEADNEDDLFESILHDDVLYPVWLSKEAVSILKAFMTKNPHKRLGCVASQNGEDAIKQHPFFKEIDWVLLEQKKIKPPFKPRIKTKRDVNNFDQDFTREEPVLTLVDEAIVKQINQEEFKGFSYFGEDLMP", "conditions": "cited from earlier work"}, "[7]": {"target": "conventional protein kinase C isoform γ (Homo sapiens, UniProt P05129)", "conditions": "cited from earlier work"}, "[8]": {"tested_on": "IL-2 production by CD3+ T cells", "conditions": "at concentrations less than 0.5 mM"}, "[9]": {"target": "calcium-independent protein kinase C isoform η (Homo sapiens, UniProt P24723)", "sequence (P24723 whole entry, canonical isoform)": "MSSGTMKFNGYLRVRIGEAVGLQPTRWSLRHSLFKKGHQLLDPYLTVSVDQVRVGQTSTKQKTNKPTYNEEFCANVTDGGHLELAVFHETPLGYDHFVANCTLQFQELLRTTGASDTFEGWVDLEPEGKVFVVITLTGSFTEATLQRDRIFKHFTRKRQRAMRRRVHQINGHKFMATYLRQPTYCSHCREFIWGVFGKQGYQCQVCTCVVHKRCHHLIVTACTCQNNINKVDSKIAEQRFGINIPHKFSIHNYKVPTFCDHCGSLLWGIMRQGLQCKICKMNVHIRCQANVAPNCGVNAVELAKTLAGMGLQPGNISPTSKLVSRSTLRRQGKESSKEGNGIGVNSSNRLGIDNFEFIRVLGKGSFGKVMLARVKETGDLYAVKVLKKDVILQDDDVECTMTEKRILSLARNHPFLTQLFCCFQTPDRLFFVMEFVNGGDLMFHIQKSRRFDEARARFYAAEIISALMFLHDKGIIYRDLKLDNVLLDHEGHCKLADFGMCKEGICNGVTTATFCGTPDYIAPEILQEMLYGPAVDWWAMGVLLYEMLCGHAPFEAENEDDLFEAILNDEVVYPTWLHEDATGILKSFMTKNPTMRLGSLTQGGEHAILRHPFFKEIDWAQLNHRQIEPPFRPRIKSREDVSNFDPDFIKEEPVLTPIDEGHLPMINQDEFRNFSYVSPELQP", "conditions": "cited from earlier work"}, "[10]": {"tested_on": "peripheral blood mononuclear cells", "test": "Intracellular calcium kinetics after PHA, flow cytometry (fluo-4/Fura-red)", "type": "cell-based, human", "conditions": "PHA 20 μg/ml; at micromolar concentrations", "procedure": "Intracellular Calcium Kinetics. Human PBMC's are resuspended in calcium-free PBS and loaded with the calcium indicator dyes Fura-red and fluo-4 for 1 hour at room temperature shielded from light. […] At the end of dye loading, cells are washed in PBS and resuspended in RPMI 1640 and placed in growth conditions. One million cells of each sample are then analyzed by a flow cytometer and the mean FL-1 and FL-3 channels recorded every 8 seconds for a total of 240 seconds. At least eight thousand events are acquired during each eight-second interval. PHA (20 μg/ml) was added to activate T cells at time 0 seconds. The ratio FL-1/FL-3 is directly related to the intracellular calcium concentration and is expressed in arbitrary units (AU)."}, "[11]": {"target": "calcium-independent protein kinase C isoform δ (Homo sapiens, UniProt Q05655)", "sequence (Q05655 whole entry, canonical isoform)": "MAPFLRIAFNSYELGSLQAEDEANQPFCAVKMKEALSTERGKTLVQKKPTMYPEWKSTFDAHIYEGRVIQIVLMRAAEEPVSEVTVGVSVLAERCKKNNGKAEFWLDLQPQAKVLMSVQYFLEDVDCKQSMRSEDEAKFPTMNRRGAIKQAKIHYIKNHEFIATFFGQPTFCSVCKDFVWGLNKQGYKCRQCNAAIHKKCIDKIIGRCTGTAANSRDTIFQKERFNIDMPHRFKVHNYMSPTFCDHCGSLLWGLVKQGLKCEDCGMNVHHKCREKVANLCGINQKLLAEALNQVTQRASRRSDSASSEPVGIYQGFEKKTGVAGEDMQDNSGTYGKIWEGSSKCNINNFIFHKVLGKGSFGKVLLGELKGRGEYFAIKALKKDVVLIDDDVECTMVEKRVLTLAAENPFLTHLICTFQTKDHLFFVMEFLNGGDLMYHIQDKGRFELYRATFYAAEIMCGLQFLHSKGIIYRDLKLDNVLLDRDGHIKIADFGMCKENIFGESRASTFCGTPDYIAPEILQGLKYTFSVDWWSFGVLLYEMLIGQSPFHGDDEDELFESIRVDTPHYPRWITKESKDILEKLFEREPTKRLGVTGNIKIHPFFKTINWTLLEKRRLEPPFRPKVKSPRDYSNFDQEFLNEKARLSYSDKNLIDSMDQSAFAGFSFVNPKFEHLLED", "conditions": "cited from earlier work"}},
  "note": "Like-named read-outs stand apart in the source and are kept apart here.",
  "data": [
    {"smiles": "CO[C@@H]1[C@H](N(C)C(=O)c2ccccc2)C[C@H]2O[C@]1(C)n1c3ccccc3c3c4c(c5c6ccccc6n2c5c31)C(=O)NC4", "note": "[Compound I, midostaurin]", "values": [
      {"measurement": "cpm (mean 3H-thymidine incorporation)", "setting": "[1]; C I 0.05 mM with CsA 50 ng/ml", "result": 8472, "unit": "cpm"},
      {"measurement": "cpm (mean 3H-thymidine incorporation)", "setting": "[1]; C I 0.05 mM with CsA 100 ng/ml", "result": 7307, "unit": "cpm"},
      {"measurement": "cpm (mean 3H-thymidine incorporation)", "setting": "[1]; C I 0.05 mM, no CsA", "result": 11944, "unit": "cpm"},
      {"measurement": "cpm (mean 3H-thymidine incorporation)", "setting": "[1]; C I 0.1 mM with CsA 50 ng/ml", "result": 5260, "unit": "cpm"},
      {"measurement": "cpm (mean 3H-thymidine incorporation)", "setting": "[1]; C I 0.1 mM with CsA 100 ng/ml", "result": 3162, "unit": "cpm"},
      {"measurement": "cpm (mean 3H-thymidine incorporation)", "setting": "[1]; C I 0.1 mM, no CsA", "result": 9005, "unit": "cpm"},
      {"measurement": "cpm (mean 3H-thymidine incorporation)", "setting": "[1]; C I 1 mM with CsA 50 ng/ml", "result": 1082, "unit": "cpm"},
      {"measurement": "cpm (mean 3H-thymidine incorporation)", "setting": "[1]; C I 1 mM with CsA 100 ng/ml", "result": 642, "unit": "cpm"},
      {"measurement": "cpm (mean 3H-thymidine incorporation)", "setting": "[1]; C I 1 mM, no CsA", "result": 2556, "unit": "cpm"},
      {"measurement": "effect on IFN-gamma production by CD3+ T cells", "setting": "[2]", "result": "slightly increases"},
      {"measurement": "serum levels", "setting": "[3]", "result": "micromolar range"},
      {"measurement": "inhibition of protein kinase C isoform α (inhibitory concentration)", "setting": "[4]", "result": "nanomolar concentrations"},
      {"measurement": "inhibition of protein kinase C isoform β (inhibitory concentration)", "setting": "[5]", "result": "nanomolar concentrations"},
      {"measurement": "inhibition of protein kinase C isoform ε (inhibitory concentration)", "setting": "[6]", "result": "nanomolar concentrations"},
      {"measurement": "inhibition of protein kinase C isoform γ (inhibitory concentration)", "setting": "[7]", "result": "nanomolar concentrations"},
      {"measurement": "effect on IL-2 production by CD3+ T cells", "setting": "[8]", "result": "slightly increases"},
      {"measurement": "inhibition of protein kinase C isoform η (inhibitory concentration)", "setting": "[9]", "result": "nanomolar concentrations"},
      {"measurement": "intracellular calcium response to PHA", "setting": "[10]", "result": "blunts"},
      {"measurement": "inhibition of protein kinase C isoform δ (inhibitory concentration)", "setting": "[11]", "result": "nanomolar concentrations"}
    ]}
  ]
}
